This assay addresses acetylcholinesterase (AChE) from Electrophorus electricus (electric eel) (Electrophorus electricus, UniProt O42275). The assay can be described thus: Ellman assay, […] nm. The assay is classed as biochemical. On the technique in general: DTNB colorimetry detects thiols as they appear.

Read-outs that look alike come from different tables or passages of the source.

Chain of acetylcholinesterase (AChE) from Electrophorus electricus (electric eel) (O42275 24-633): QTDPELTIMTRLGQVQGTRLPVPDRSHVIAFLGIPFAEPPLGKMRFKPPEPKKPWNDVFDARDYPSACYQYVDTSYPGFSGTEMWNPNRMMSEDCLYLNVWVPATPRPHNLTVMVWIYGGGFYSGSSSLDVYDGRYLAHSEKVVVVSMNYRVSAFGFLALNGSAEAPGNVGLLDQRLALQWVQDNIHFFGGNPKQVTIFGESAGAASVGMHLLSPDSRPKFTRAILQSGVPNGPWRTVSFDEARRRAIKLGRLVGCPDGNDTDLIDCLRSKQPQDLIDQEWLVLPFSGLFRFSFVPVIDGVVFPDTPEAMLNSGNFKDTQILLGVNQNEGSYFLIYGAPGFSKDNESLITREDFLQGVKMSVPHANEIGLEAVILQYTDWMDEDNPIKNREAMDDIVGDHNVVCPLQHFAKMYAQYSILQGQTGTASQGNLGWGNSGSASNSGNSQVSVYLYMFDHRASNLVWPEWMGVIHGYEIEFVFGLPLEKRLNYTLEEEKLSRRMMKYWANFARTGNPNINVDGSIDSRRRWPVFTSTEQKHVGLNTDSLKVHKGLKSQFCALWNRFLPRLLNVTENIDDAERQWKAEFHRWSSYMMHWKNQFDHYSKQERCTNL

In general, IC50 refers to the concentration needed to halve the response being measured. Low values mean greater potency in that assay, high ones weaker potency in that assay. For `CCCCCCCCCCCCCCCc1cc(O)cc(O)c1` [AR 15:0], the IC50 was greater than 94 µM. Turning to `CCCCCCCCCCCCCCCCCCCc1cc(O)cc(O)c1` [AR 19:0], 77 ± 1.25 µM corresponded to half-maximal inhibition (IC50).

Regarding `CCCCCCCCCCCCCCCCCCCCCc1cc(O)cc(O)c1` [AR 21:0], it took 44 ± 0.47 µM to reach half-maximal inhibition (IC50). For `CCCCCCCCCCCCCCCCCCCCCCCCCc1cc(O)cc(O)c1` [AR 25:0], the IC50 worked out at 44 ± 4.24 µM. The compound Cardol showed an IC50 (acetylthiocholine iodide (0.476 μM as printed), pH 8.0, 37 °C, 5 min pre-incubation) of 3.5 ± 0.2 µM.

The record behind these values is PMC4042574, “Phenolic Lipids Affect the Activity and Conformation of Acetylcholinesterase from Electrophorus electricus (Electric eel)” (Nutrients, 2014).
